In US7867976B2, “Nogo epitopic fragments for modulating immune response” (The Board of Trustees of the Leland Stanford Junior …, priority 2003, dated 2011):

Key:
Normal Mouse Serum = assay: myelin antigen microarray; positive-control feature 'Anti-mouse IgG/M' capturing immunoglobulin of the serum in column 'a. Normal'
whole lymph node cells = assay: whole lymph node cell proliferation assay against Nogo and irrelevant peptides after Nogo-66 peptide immunization; format: cell-based, mice; conditions: draining lymph nodes at end of experiments
From the text: Induction of EAE and T cell responses with Nogo-66 peptides in susceptible mouse strains. To ascertain the potential for Nogo-A to act as a target autoantigen for autoimmune demyelination, we chose to focus on the exposed extracellular 66-amino acid loop, Nogo-66, since this should be the region most prone to interaction with immune cells. EAE susceptible SJL/J and C57BU6 female mice of the appropriate age were subcutaneously immunized with Nogo-66 derived peptides in CFA, in various concentration ranging from 200 μg to 1000 μg, together with intravenous administration of Pertussis toxin.
Three different arbitrarily selected peptides were synthesized to encompass the whole sequence (peptides 1-22, 23-44 and 45-66). […] To evaluate the generation of a T cell proliferative response against the immunizing antigen, we collected draining lymph nodes at the end of the experiments and setup whole lymph node cell proliferation assays against our panel of Nogo and irrelevant peptides. […] Therefore, T cell epitopes appear to be slightly different between these two strains.
(§1) Immunization. For Nogo immunizations, SJL/J and C57BU6 female mice were injected subcutaneously with Nogo-peptide emulsions (concentrations ranging from 100 μg to 500 μg per injection) in CFA, consisting of IFA (Difco) and 1 mg/ml heat-inactivated Mycobacterium tuberculosis (strain H37RA; Difco laboratories, Detroit Mich.). Animals received two subcutaneous injections a week apart in different sites (flank and groin); at the time of the second immunization and 48 hours later, mice were injected intravenously with Bordetella pertussis toxin (List Laboratories) in PBS, 500 ng/animal; For Nogo-A/B/C knockouts, animals were immunized subcutaneously with 100 μg of MOG35-55 peptide emulsion in CFA and received two intravenous injections of 300 ng of Bordetella pertussis toxin, at the time of immunization and 48 hours later. Chronic EAE was induced in SJL/J mice by subcutaneous injection of 100 mg of PLP139-151 peptide emulsion in CFA. Animals were clinically scored daily according to the following scale: 0-normal; 1-tail paralysis; 2-hind limb paraparesis; 3-complete hind limb paralysis; 4-forelimb paresis or paralysis; 5-death.
Proliferation assays. Whole lymph node cells were cultured in 96-well microtiter plates at 0.5×10^6 cells/well. Culture medium consisted of RPMI 1640 supplemented with L-glutamine (2 mM), sodium pyruvate (1 mM), non-essential amino acids (0.1 mM), penicillin (100 U/ml), streptomycin (0.1 mg/ml), 2-ME (5×10^−5 M) and 10% fetal bovine serum. Wells were pulsed with 1 μCi [^3H]TdR for the final 16 hours of culture, and incorporated radioactivity was measured using a betaplate scintillation counter.

[1] = system: myelin antigens (2304-feature spotted peptide array, 293 distinct antigens); assay: antibody (B cell) response of sera from immunized animals on spotted peptide array; format: in vivo, mice; conditions: for epitope spreading of the B cell response to other myelin antigens: sera on proteome array, statistical and cluster analysis
From the text: Nogo-66 peptide immunization induces a B cell response with epitope spreading to other myelin antigens. To follow the induction of a specific antibody response to the immunizing Nogo peptides, and the possible spread to other myelin antigens, we used an 2304-feature spotted peptide array developed in our laboratory that contains 293 distinct antigens including proteins and sets of overlapping peptides representing all major EAE-relevant targets and several Nogo-66 overlapping peptides together with p472 (Robinson, 2001). Sera from several immunized animals was obtained at different time points after EAE induction with all three Nogo peptides, and hybridized to the proteome array according to our protocol.
This was particularly relevant after immunization with pNogo45-66 in both strains, and with pNogo23-44 for C57BU6 mice. Spreading of the B cell response evidenced a specific pattern for each immunizing antigen within each strain, with very little overlap between them.
as §1, with “Chronic EAE was induced in SJL/J mice by subcutaneous injection of 100 mg of PLP139-151 peptide emulsion in CFA.” left out

[2] = system: whole lymph node cells (T cells, dendritic cells); assay: FACScan analysis of activation markers and co-stimulatory molecules after immunization; format: cell-based, mice; conditions: female SJL/J, 10 days post-immunization; compared with PLP139-151
From the text: We purified whole lymph node cells from female SJL/J animals 10 days post-immunization with PLP139-151, pNogo1-22 and pNogo45-66 and looked at the expression of several activation markers and co-stimulatory molecules by fluorescence activated cell scan (FACScan) analysis. […] Nogo-peptides are capable of normal presentation by APC and immunization leads to normal activation of T cells.

EAE in SJL/J mice = assay: adoptive transfer of Nogo-reactive T cells into SJL/J mice with PLP139-151 induced EAE; format: in vivo; conditions: cells of EAE animals that received TCL; compared with PLP139-151
Protocol: We induced EAE in SJL/J mice by immunization with 100 μg of PLP139-151 peptide in CFA and followed these animals for disease course. At the peak of second relapse (day 31), animals were randomized into three groups and received either weekly PBS, anti-pNogo1-22 or anti-pNogo45-66 reactive T cells in PBS (average of 15 million cells), by intravenous administration for three weeks. […] For these animals, this improvement was maintained throughout the next 45 days of the experiment, up to 30 days after the last TCL administration.
Immunization. For Nogo immunizations, SJL/J and C57BU6 female mice were injected subcutaneously with Nogo-peptide emulsions (concentrations ranging from 100 μg to 500 μg per injection) in CFA, consisting of IFA (Difco) and 1 mg/ml heat-inactivated Mycobacterium tuberculosis (strain H37RA; Difco laboratories, Detroit Mich.). […] Animals were clinically scored daily according to the following scale: 0-normal; 1-tail paralysis; 2-hind limb paraparesis; 3-complete hind limb paralysis; 4-forelimb paresis or paralysis; 5-death.
Proliferation assays. […] Wells were pulsed with 1 μCi [^3H]TdR for the final 16 hours of culture, and incorporated radioactivity was measured using a betaplate scintillation counter.

Bi MOG35-55 BIOTIN = assay: myelin antigen microarray, serum antibody binding to spotted feature 'Bi MOG35-55 BIOTIN'

With Anti-mouse IgG/M (antibody) as the substance, how does the microarray signal (quantity and unit not named on the sheet) (Normal Mouse Serum) read?
The microarray signal (quantity and unit not named on the sheet) was 50000.

How did the “T cell proliferative response against the immunizing antigen” value (“T cell proliferative response” below) (whole lymph node cells; C57BU6 animals, listed as Ng23-44) turn out when “Nogo23-44 (LESEVAISEELVQKYSNSALGH; SEQ ID NO:5) [pNogo23-44, peptide 23-44 of the extracellular 66-amino acid loop Nogo-66]” was run?
Its value is “T cell reaction”.

What about the “epitope spreading of the B cell response to other myelin antigens” value [1] of the same substance?
Its value is “to MOG and MBP peptides (especially in C57BU6 animals)”.

Which “T cell proliferative response” value (whole lymph node cells; SJL/J animals) does the source give for “Nogo45-66 (VNSTIKELRRLFLVDDLVDSLK; SEQ ID NO:2) [pNogo45-66, peptide 45-66 of the extracellular 66-amino acid loop Nogo-66]” here?
The value was “strong and specific proliferative response”.

And the “T cell proliferative response” value (whole lymph node cells; SJL/J animals, listed as Ng45-66)?
The value was “T cell reaction”.

What about the “strength as B cell antigen compared with the other peptides” value ([1]; mouse, in vivo) of the same substance?
The value was “much stronger B cell antigen than any of the other two synthesized peptides”.

And the “cell surface expression of CD25, CD18, CD40L, CD62, CD69, CD28 and CTLA4e in T cells or CD80, CD86, CD40 in dendritic cells” value [2]?
The value was “could not find any difference”.

And the “in vitro proliferation at the end of the experiment” value (EAE in SJL/J mice)?
The value was “much stronger than against the EAE inducing antigen”.

With “Nogo 1-22 (RIYKGVIQAIQKSDEGHPFRAY; SEQ ID NO:4) [pNogo1-22, peptide 1-22 of the extracellular 66-amino acid loop Nogo-66]” as the substance, how does the “T cell proliferative response” value (whole lymph node cells; C57BU6 animals, listed as Ng1-22) read?
Its value is “T cell reaction”.

And the “T cell proliferative response” value (whole lymph node cells; SJL/J animals)?
Its value is “strong and specific proliferative response”.

And the “T cell proliferative response” value (whole lymph node cells; SJL/J animals, listed as Ng1-22)?
The value was “T cell reaction”.

And the “epitope spreading of the B cell response to other myelin antigens” value [1]?
The value was “mainly to MBP peptides”.

And the “cell surface expression of CD25, CD18, CD40L, CD62, CD69, CD28 and CTLA4e in T cells or CD80, CD86, CD40 in dendritic cells” value [2]?
Its value is “could not find any difference”.

For Normal Mouse Serum, which microarray signal (quantity and unit not named on the sheet) (Bi MOG35-55 BIOTIN) is on record?
Its microarray signal (quantity and unit not named on the sheet) is 5.
